Reference: US7960397B2, “6,9-disubstituted purine derivatives and their use as cosmetics and cosmetic compositions” (Institute of Experimental Botany, Academy of Sciences of …, priority 2007, dated 2011)

Legend:
[1] = system: human diploid fibroblasts (HCA cells, HCA20, HCA40, HCA60); assay: Senescent cells (β-galactosidase staining) in culture of human fibroblasts; assay type: cell-based; settings: for SENESCENT CELLS (%) HCA20: human fibroblasts passage 20 (HCA20); for SENESCENT CELLS (%) HCA40: human fibroblasts passage 40 (HCA40); for SENESCENT CELLS (%) HCA60: human fibroblasts passage 60 (HCA60)
Procedure: In this example, human diploid fibroblasts (HCA cells of various passage levels: passage 20—designated HCA20; passage 40—designated HCA40; passage 60—designated HCA60) were stained for β-galactosidase activity. The medium used for the cell cultivation was removed, the cells were washed twice in […], and fixed in 2-3 ml of fixing solution comprised of a 2% formaldehyde and 0.2% glutaraldehyde in PBS. The cells were incubated at room temperature for 5 minutes, and then washed twice with PBS. The cells were subsequently incubated at 37° C.

excised wheat leaf tips = assay: Antisenescence test, retention of chlorophyll in excised wheat leaf tips; parameters: species or system Triticum aestivum cv. Hereward; settings: for activity (%) [10^−4 mol · l^−1 BAP = 100%]: retention of chlorophyll in excised wheat leaf tips at the concentration with highest activity, 10 replicate determinations; for concentration with highest activity: retention of chlorophyll in excised wheat leaf tips, tested range 10^−8 M to 10^−4 M, 96 h in the dark at 25° C.
Procedure: Testing of antisenescence properties of novel cytokinin compounds on wheat leaf segments. Seeds of winter wheat, Triticum aestivum cv. Hereward, were washed under running water for 24 hours and then sown on vermiculite soaked with the Knop's solution. They were placed in the grow chamber at 25° C. with a 16 h-8 h light period at 50 mmol.m^−2.s^−1. After 7 days, the first leaf was fully developed and the second leaf had started to grow. A 35 mm long tip section of the first leaf, was removed from each of 5 seedlings and trimmed slightly to a combined weight of 100 mg. The basal ends of the five leaf tips were placed in the wells of a microtiter polystyrene plate containing […] of the solution of the tested compound each. The entire plate was inserted into a plastic box lined with paper tissues soaked with distilled water to prevent leaf sections from drying out. After 96 h incubation in the dark at 25° C., the leaves were removed and chlorophyll was extracted by heating at 80° C. for 10 min in 5 ml of 80% ethanol (v/v). The sample volume was then restored to 5 ml by the addition of 80% ethanol (v/v). The absorbance of the extract was recorded at 665 nm. In addition, chlorophyll extracts from fresh leaves and leaf tips incubated in deionized water were measured. […] Relative activity of the compound at this concentration was calculated (Table 7). The activity obtained for 10^−4 M 6-benzylaminopurine (BAP) was defined as 100%. The values shown are means of five replicates and the whole experiment was repeated twice.
(§1) The compounds to be tested were dissolved in dimethylsulfoxide (DMSO) and the solution brought up to 10^−3 M with distilled water.

[2] = system: cytokinin-dependent tobacco callus Nicotiana tabacum L. cv. Wisconsin 38; assay: Cytokinin activity in tobacco callus bioassay; assay type: cell-based; settings: for concentration with highest activity: growth of tobacco callus, four weeks of cultivation, tested 10^−8 M to 10^−4 M; for Activity (%) [10^−5 mol · l^−1 BAP = 100%]: increase of fresh callus weight at the concentration with highest activity, 10^−5 M BAP = 100%
Procedure: Estimation of cytokinin biological activity of novel compounds in callus bioassay. Cytokinin-dependent tobacco callus Nicotiana tabacum L. cv. […] Subcultivation was carried out every three weeks. Fourteen days before the bioassay, the callus tissue was transferred to the media without the compound tested. The biological activity was determined from the increase of the fresh callus weight after four weeks of cultivation. Five replicates were prepared for each concentration of the compound tested and the entire test was repeated twice. […] The relative activity of the compound at this concentration was calculated (Table 8). […] The compounds to be tested were dissolved in dimethylsulfoxide (DMSO) and the solution brought up to 10^−3 M with distilled water. This stock solution was further diluted with the respective media used for the biotest to a concentration ranging from 10^−8 M to 10^−4 M.

[3] = system: Amaranthus caudatus cotyledon/hypocotyl explants; assay: Amaranthus bioassay (betacyanin content); parameters: species or system Amaranthus caudatus var. atropurpurea; settings: for concentration with highest activity: betacyanin content after 48 h incubation, tested 10^−8 M to 10^−4 M; for Activity (%) [10^−5 mol · l^−1 BAP = 100%]: betacyanin content at the concentration with highest activity, 10^−5 M BAP = 100%
Procedure: Testing of novel compounds for typical cytokinin activity in Amaranthus bioassay. A standard Amaranthus bioassay was performed with several modifications. The seeds of Amaranthus caudatus var. atropurpurea were surface-sterilized in 10% (w/v) N-chlorobenzenesulfonamide for 10 min and washed 5 times with deionized water. They were placed in 14 cm Petri dishes containing paper tissues saturated with deionized water. After 72 h of cultivation at 25° C. in darkness, the roots of the seedlings were cut off. The explants, consisting of two cotyledons and hypocotyls, were placed in 5 cm Petri dishes onto two layers of filter paper soaked with 1 ml of the incubation medium containing 10 mmol of NA2HPO4—KH2PO4, pH 6.8, 5 mmol of tyrosine and the compound to be tested. There were 20 explants per dish. The procedure was carried out under a green safe light in a darkroom. […] The concentration of betacyanin was determined from the absorbencies at 537 nm and 620 nm as follows: DA=A537 nm−A620 nm. […] Relative activity of the compound at this concentration was calculated. The activity obtained for 10^−5 M 6-benzylaminopurine (BAP) was defined as 100%.
as §1

Compound | SENESCENT CELLS (%) HCA20 [1] | SENESCENT CELLS (%) HCA40 [1] | SENESCENT CELLS (%) HCA60 [1] | activity (%) [10^−4 mol · l^−1 BAP = 100%] (excised wheat leaf tips) | concentration with highest activity (excised wheat leaf tips) | concentration with highest activity [2] | Activity (%) [10^−5 mol · l^−1 BAP = 100%] [2] | concentration with highest activity [3] | Activity (%) [10^−5 mol · l^−1 BAP = 100%] [3]
COc1cccc(CNc2ncnc3c2ncn3C2CCCCO2)c1O (stereo not drawn) | 3% | 3% | 25% | 50% | 10^−4 mol · l^−1 | 10^−6 mol · l^−1 | 11% | 10^−4 mol · l^−1 | 32%
Cc1cccc(CNc2ncnc3c2ncn3C2CCCCO2)c1O (stereo not drawn) | 4% | 6% | 30% | 16.4% | 10^−4 mol · l^−1 | 10^−5 mol · l^−1 | 9.2% | 10^−4 mol · l^−1 | 68.8%
COc1ccc(CNc2ncnc3c2ncn3C2CCCCO2)c(O)c1 (stereo not drawn) | 3% | 4% | 27% | 35% | 10^−4 mol · l^−1 | 10^−6 mol · l^−1 | 43% | 10^−4 mol · l^−1 | 37%
Cc1ccc(O)c(CNc2ncnc3c2ncn3C2CCCCO2)c1 (stereo not drawn) | 5% | 4% | 30% | 82% | 10^−4 mol · l^−1 | 10^−4 mol · l^−1 | 121% | 10^−4 mol · l^−1 | 68.4%
Oc1ccoc1CNc1ncnc2c1ncn2C1CCCCO1 (stereo not drawn) | 4% | 4% | 18% | 45% | 10^−4 mol · l^−1 | 10^−6 mol · l^−1 | 52% | 10^−4 mol · l^−1 | 65%
COc1cc(O)cc(OC)c1Nc1ncnc2c1ncn2C1CCCCO1 (stereo not drawn) | 4% | 6% | 24% | 14% | 10^−4 mol · l^−1 | 10^−5 mol · l^−1 | 15% | 10^−4 mol · l^−1 | 8%
CC(CO)CCNc1ncnc2c1ncn2C1CCCO1 (stereo not drawn) | 5% | 2% | 25% | 91% | 10^−4 mol · l^−1 | 10^−5 mol · l^−1 | 105% | 10^−4 mol · l^−1 | 80%
COc1cc(Nc2ncnc3c2ncn3C2CCCCO2)cc(OC)c1O (stereo not drawn) | 4% | 5% | 22% | 28% | 10^−4 mol · l^−1 | 10^−5 mol · l^−1 | 19% | 10^−4 mol · l^−1 | 10%
COc1cc(CNc2ncnc3c2ncn3C2CCCCO2)cc(OC)c1O (stereo not drawn) | 4% | 5% | 17% | 42% | 10^−4 mol · l^−1 | 10^−5 mol · l^−1 | 39% | 10^−4 mol · l^−1 | 8%
Oc1ccccc1Nc1ncnc2c1ncn2C1CCCCO1 (stereo not drawn) [2-hydroxyanilino / tetrahydropyran-2-yl] | 4% | 6% | 29% | 11% | 10^−4 mol · l^−1 | 10^−5 mol · l^−1 | 30% | 10^−4 mol · l^−1 | 65%
Oc1cccc(Nc2ncnc3c2ncn3C2CCCCO2)c1 (stereo not drawn) [3-hydroxyanilino / tetrahydropyran-2-yl] | 5% | 4% | 28% | 23% | 10^−4 mol · l^−1 | 10^−5 mol · l^−1 | 65% | 10^−4 mol · l^−1 | 122%
Oc1ccccc1CNc1ncnc2c1ncn2C1CCCO1 (stereo not drawn) [6-(2-hydroxybenzylamino)-9-(tetrahydrofuran-2-yl)-purine] | 4% | 2% | 26% | 26% | 10^−4 mol · l^−1 | 10^−5 mol · l^−1 | 78% | 10^−4 mol · l^−1 | 33%
Oc1ccccc1CNc1ncnc2c1ncn2C1CCCCO1 (stereo not drawn) [6-(2-hydroxybenzylamino)-9-(tetrahydropyran-2-yl)purine] | 4% | 2% | 26% | 23.6% | 10^−4 mol · l^−1 | 10^−5 mol · l^−1 | 80% | 10^−4 mol · l^−1 | 41.6%
Oc1cccc(CNc2ncnc3c2ncn3C2CCCO2)c1 (stereo not drawn) [6-(3-hydroxybenzylamino)-9-(tetrahydrofuran-2-yl)-purine] | 5% | 3% | 25% | 113% | 10^−4 mol · l^−1 | 10^−5 mol · l^−1 | 125% | 10^−4 mol · l^−1 | 107%
